The molecules below were run against T1, S-ribosylhomocysteine lyase (Vibrio harveyi, UniProt B0LUE4) (assay: LuxS enzyme inhibitors, dose response, mechanism study for V. harveyi quorum sensing inhibitors, biochemical, cell-free, homogeneous (AID 434944)).
T1 sequence (B0LUE4 whole entry): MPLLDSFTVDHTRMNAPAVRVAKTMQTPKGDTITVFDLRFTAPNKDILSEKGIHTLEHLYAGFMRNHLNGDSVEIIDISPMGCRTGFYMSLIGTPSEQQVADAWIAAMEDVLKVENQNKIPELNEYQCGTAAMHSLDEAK

EC50	SMILES
> 350 µM	Cn1cnc(S(=O)(=O)Nc2ccc(OC(F)(F)F)cc2)c1 [SMR000314513]
> 350 µM	Cc1cccc(NS(=O)(=O)c2ccc(Oc3ccccc3)cc2)n1 [SMR000071466]

Continued, molecule first:

SMILES	EC50
CN(C)S(=O)(=O)c1ccc(NC(=S)NC(=O)Cc2ccccc2)cc1 [N-[[4-(dimethylsulfamoyl)phenyl]carbamothioyl]-2-phenyl-ethanamide]	> 350 µM
COc1cc(NC(=O)CN2C(=O)NC(c3ccccc3)(c3ccccc3)C2=O)cc(OC)c1 [MLS001176525]	> 350 µM
C=Cn1c(C(=O)O)ccc1-c1ccc(CC)cc1	149 µM
CCc1ccc(S(=O)(=O)Nc2ccc(Br)cn2)cc1 [MLS001211346]	> 350 µM
CCCc1ccc(S(=O)(=O)N(C)S(=O)(=O)c2ccc(F)cc2)cc1 [N-(4-fluorophenyl)sulfonyl-N-methyl-4-propylbenzenesulfonamide]	> 350 µM
